In patent publication US20250228815A1, “LYOPHILIZED RESINIFERATOXIN” (Gruenenthal GmbH, priority 2024, published 2025):
Converted amounts (≈) assume the structure as drawn. Where two headings read alike, the source gives them in different places.

Legend:
[1] = maximum solubility of Resiniferatoxin by the equilibrium method (HPLC); type: physicochemical; settings: buffer medium with TPGS, 25 °C, pH 8, aqueous with cosolvent or surfactant or cyclodextrin, thermodynamic from solid, TPGS 3.5 mg/ml, n ≥ 3, read-out: RTX solubility
Experimental: The maximum solubility of Resiniferatoxin in various liquids was investigated by the equilibrium method.
Buffer media were saturated with an excess amount of Resiniferatoxin (characterized by undissolved API) and incubated at 25° C. while shaking (150 rpm) for 72 h. After incubation, 1 mL of each sample was centrifuged (10 min, 12045 RCF) and the supernatant was used to determine the amount of solubilized Resiniferatoxin via HPLC.

[2] = cited from earlier work
[3] = randomized, double-blind, placebo-controlled, single-dose trial of intraarticular Resiniferatoxin: analgesic effect (VAS pain on motion, WOMAC); type: in vivo, human
Experimental: (§1) The primary objective of this study was to compare the analgesic effects of single intraarticular injections of Resiniferatoxin (100 or 400 ng) compared to placebo, at 3 and 6 months postinjection, in participants with chronic osteoarthritic knee joint pain. Secondary objectives were to evaluate the analgesic effects of Resiniferatoxin versus placebo in terms of a responder analysis (percentage of subjects achieving ≥50% or ≥70% reduction in visual analog scale pain score) and changes in Western Ontario and McMaster Universities Arthritis Index (WOMAC) total and subscale scores (pain, physical function and stiffness). Safety and injection site pain were also evaluated.
(§2) The study was conducted as a randomized, double-blind, placebo-controlled, single-dose trial of Resiniferatoxin. Eligible patients were aged 40 to 80 years with radiographic knee osteoarthritis (Kellgren-Lawrence Grade 2-4 in the last 3 years) and a baseline visual analog scale (0-100 mm) pain score ≥40 mm on motion in the target knee, with or without pain medication. 67 subjects were randomized to treatment with either Resiniferatoxin 100 ng (n=24) or 400 ng (n=23), or placebo (n=20), administered intraarticularly into the index knee. Intraarticular Ropivacaine (5 ml, 0.5%) was administered 15 mins before investigational medicinal product. Visual analog scale scores were used to evaluate pain on motion as the average of the last 2 days in a target knee between baseline and at 3 and 6 months post injection. Injection site pain was rated (visual analog scale) from baseline (−0.5 h) up to 3 h post intraarticular injections.
Data values plotted as mean±standard error of mean, offset in X for clarity. ▴ Placebo (n=20); ▪ Resiniferatoxin 100 ng (n=24); ● Resiniferatoxin 400 ng (n=23).

[4] = same trial: safety, treatment emergent adverse events and injection site pain; type: in vivo, human; settings: for subjects with severe adverse events: none related to investigational medicinal product
Experimental: as §1, §2

[5] = single intraarticular 100 ng or 400 ng

Row | Structure (SMILES) | solubility at 72 h ([1]; Ex. 5-1: no ethanol, NaCl 8.58, CaCl2 0.2, KCl 0.1, trometamol 0.4 mg/ml, pH 8.0, mean ± SD) [µg/mL] | solubility at 72 h ([1]; Ex. 5-2: ethanol 39.44 mg/ml, NaCl 8.58, CaCl2 0.58, KCl 0.3, trometamol 1.22 mg/ml, pH 8.0, mean ± SD) [µg/mL] | solubility at 72 h ([1]; Ex. 5-3: ethanol 39.44 mg/ml, mannitol 14.9 mg/ml, salts as Ex. 5-2, pH 8.0, mean ± SD) [µg/mL] | solubility at 72 h ([1]; Ex. 5-4: no ethanol, NaCl 8.58, CaCl2 0.58, KCl 0.3, trometamol 1.22 mg/ml, pH 8.0, mean ± SD) [µg/mL] | efficacy ([2]; 5 μg, 12.5 μg, 20 μg and 30 μg cohorts, preliminary) | safety ([2]; onetime intraarticular injection up to 30 μg) | reduction in WOMAC total and subscale scores (pain, physical function and stiffness) compared to placebo ([3]; 100 ng and 400 ng, at both 3 and 6 months) | pain reduction compared to placebo ([3]; 100 ng or 400 ng intraarticular) | first trial visit at which reduction in VAS pain on motion was observed ([3]; intention-to-treat population) [days] | last trial visit until which the effect lasted ([3]; intention-to-treat population) [month] | analgesic onset after administration [3, 5] | duration for which analgesia was evident during follow-up [3, 5] | subjects with severe adverse events ([4]; Resiniferatoxin 100 ng) [subjects] | subjects with severe adverse events ([4]; Resiniferatoxin 400 ng) [subjects] | injection site pain (procedural pain) compared to placebo ([4]; highly variable across treatment groups) | time of peak injection site pain post-injection ([4]; intraarticular injection, moderate-severe intensity in some subjects) | injection site pain, return to baseline ([4]; post intraarticular injection) [h] | safety profile and tolerability [4, 5]
1 | C=C(C)[C@]12C[C@@H](C)[C@@]34O[C@](Cc5ccccc5)(O[C@@H]1[C@@H]3C=C(COC(=O)Cc1ccc(O)c(OC)c1)C[C@]1(O)C(=O)C(C)=C[C@@H]41)O2 [RTX] | 333 ± 100 (≈ 530 µM) | 630 ± 38 (≈ 1000 µM) | 336 ± 53 | 317 ± 75 (≈ 504 µM) | – | – | – | – | – | – | – | – | – | – | – | – | – | –
2 | C=C(C)[C@]12C[C@@H](C)[C@@]34O[C@](Cc5ccccc5)(O[C@@H]1[C@@H]3C=C(COC(=O)Cc1ccc(O)c(OC)c1)C[C@]1(O)C(=O)C(C)=C[C@@H]41)O2 [Resiniferatoxin, 4-hydroxy-3-methoxy-benzeneacetic acid, [(2S,3aR,3bS,6aR,9aR,9bR, 10R,11aR)-3a,3b,6,6a,9a,10,11,11a-octahydro-6a-hydroxy-8,10-dimethyl-11a-(1-methylethenyl)-7-oxo-2-(phenylmethyl)-7H-2,9b-epoxyazuleno[5,4-e]-1,3-benzodioxol-5-yl]methyl ester] | – | – | – | – | Preliminary efficacy was also observed | demonstrated safety | greater reduction | greater pain reduction | 8 | 6 | within one week | at least 3 months | 2 | 3 | generally higher | around 0.5 h | ≤ 3 | good safety profile
